The results in this text go back to ChEMBL document CHEMBL3867484, “3D-QSAR studies of 3-(3,4-dihydroisoquinolin-2(1H)-ylsulfonyl)benzoic acids as AKR1C3 inhibitors: Highlight the importance of molecular docking in conformation generation” (Bioorg Med Chem Lett, 2016).

Structures are written as SMILES.

One assay concerns the target T1, Aldo-keto reductase family 1 member C3 (Homo sapiens, UniProt P42330).
T1 sequence (P42330 whole entry): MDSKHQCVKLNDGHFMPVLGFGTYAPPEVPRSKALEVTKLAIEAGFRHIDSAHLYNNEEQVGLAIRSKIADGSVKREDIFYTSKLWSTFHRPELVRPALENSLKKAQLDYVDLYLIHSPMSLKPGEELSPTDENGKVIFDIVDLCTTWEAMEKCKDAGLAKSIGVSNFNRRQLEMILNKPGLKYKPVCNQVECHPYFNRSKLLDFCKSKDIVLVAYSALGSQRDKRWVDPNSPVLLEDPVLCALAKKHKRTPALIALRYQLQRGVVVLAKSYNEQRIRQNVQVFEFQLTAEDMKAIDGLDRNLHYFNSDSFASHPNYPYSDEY
Description: Inhibition of human recombinant His-tagged AKR1C3 expressed in Escherichia coli BL21 (DE3) cells using 8-Acetyl-2,3,5,6-tetrahydro-1H,4H-11-oxa-3a-aza-benzo[de]anthracen-10-one as substrate after 1 hr in presence of NADPH by fluorescence assay. The conditions noted are these: read-out: IC50.
As to `O=C(O)c1cccc(S(=O)(=O)N2CCc3ccc(C#Cc4ccc(C(F)(F)F)cc4)cc3C2)c1`, the IC50 is 1310 nM.

On to `O=C(NN1CCSCC1)c1cccc(S(=O)(=O)N2CCc3ccccc3C2)c1`, for which the IC50 stood at 450 nM.

As for `CN1CC(c2ccc(S(=O)(=O)N3CCc4ccccc4C3)cc2)CC1=O` (stereo not drawn), the IC50 is 42 nM.

Regarding `O=C(NN1CCOCC1)c1cccc(S(=O)(=O)N2CCc3ccccc3C2)c1`, the IC50 was 78 nM.

In the case of `O=C(O)c1cccc(S(=O)(=O)C2CCc3sccc3C2)c1` (stereo not drawn), the IC50 came to 25 nM.

Take `O=C(O)c1cccc(S(=O)(=O)C2CC=CCC2)c1` (stereo not drawn): the IC50 came out at 390 nM.

Still in this assay, the particulars now being: read-out: pIC50 (converted).
On to `O=C(O)c1cccc(S(=O)(=O)N2CCc3cc(Br)ccc3C2)c1`, for which the IC50 was 6.03 nM.

On to `O=C(O)[C@@H]1CCCN(S(=O)(=O)c2ccc3ccccc3c2)C1`, for which the IC50 is 31.6 nM.
